Assays:
[1] = test system: patients undergoing a clinically indicated coronary catheterization; experiment: Coronary blood flow velocity (CBFv) by Doppler flow wire after IV bolus, open label study (Example 1); type: in vivo, human; settings: 18 μg intracoronary (IC) Ado; mean ±SD
Protocol: The purpose of this open label study was to determine the magnitude and duration of effect of Regadenoson (10-500 μg) on CBFv in humans.
Patients undergoing a clinically indicated coronary catheterization with no more than a 70% stenosis in any coronary artery and no more than a 50% stenosis of the study vessel had CBFv determined by Doppler flow wire. Study subjects were selected after measuring baseline and peak CBFv after an intracoronary (IC) injection of 18 μg of Ado. Twenty-three patients, who were identified as meeting the study criteria of having a peak to baseline CBFv ration of ≧2.5 in response to Adenosine, received a rapid (≦10 sec) peripheral IV bolus of Regadenoson; Doppler signals were stable and interpretable over the time-course of the increase in CBFv in 17 patients.

[2] = test system: subjects undergoing stress/rest MPI; experiment: Stress/rest SPECT myocardial perfusion imaging, adenosine vs Regadenoson (Example 6); type: in vivo, human; settings: SPECT MPI, 17-segment model; p=n.s.
Protocol: To determine the ability of Regadenoson to produce coronary hyperemia and accurately detect CAD, 35 subjects (26 men, 9 women; 67±10 years) underwent both A and Regadenoson stress/rest MPI, with 10.0±9.1 days between studies. […] Regadenoson [400 mcg (n=18), 500 mcg (n=17)] was administered as an IV bolus immediately followed by a saline flush, and then a Tc-99m radiopharmaceutical [sestamibi (n=34), tetrofosmin (n=1)]. SPECT images were uniformly processed, intermixed with control studies (normal and fixed-only defects), and interpreted by three observers in a blinded fashion using a 17-segment model. Quantitative analysis was also performed using 4D MSPECT. In addition to three separate readings, a consensus interpretation was performed and then a direct, same-screen comparison of A and REGADENASON images undertaken to determine relative differences, using 5 regions per study.

[3] = test system: COPD patients; settings: both, human, in vivo
Excerpt: COPD patients were selected from two phase III randomized, triple-blind, placebo-controlled, multicenter studies (N=2,015) designed to test the strength of agreement for reversible cardiac defects between ADO and REG. There were 35 patients in the ADO group and 69 in the Regadenoson group. Age and gender were similar between ADO (68=11 yrs; 77% male) and Regadenoson group (68±11 yrs; 81% male). Of the 35 patients, 5 suffered (14%) cardiac symptoms in the ADO group vs 3/69 (4%) in the Regadenoson group (p=0.12); 14/35 (40%) in the ADO vs. 20/69 (29%) in the Regadenoson group resorted respiratory symptoms (p=0.28). Angina, occurrence of second degree AV block, acute pulmonary oedema and ronchi were higher in ADO group; nausea, GI discomfort and headache occurred more often in the Regadenoson group.

[4] = test system: awake rats; experiment: Sympathoexcitation: heart rate, blood pressure and plasma catecholamines after i.v. bolus (Example 5); type: in vivo, rat; settings: in the presence of hexamethonium 10 mg/kg, n=5
Protocol: CVT (0.31 μg/kg-50 μg/kg) was given as a rapid i.v. bolus to awake rats and heart rate (HR) and blood pressure (BP) were monitored. Regadenoson caused an increase in BP and systolic pressure (SP) at lower doses while at higher doses there was a decrease in BP and SP. […] The increase in HR was evident at the lowest dose of CVT at which there was no appreciable decrease in BP. ZM241385 (30 μg/kg, N=5), an A2A adenosine receptor antagonist, attenuated the decrease in BP (Regadenoson: 14±3%, ZM: 1±1%) and the increase in HR (CVT: 27±3%, ZM: 18±3%) caused by Regadenoson. Pretreatment with metoprolol (MET, 1 mg/kg, n=5), a beta-blocker, attenuated the increase in HR (CVT: 27±3%, MET: 15±2%), but had no effect on hypotension caused by Regadenoson. In the presence of hexamethonium (HEX, 10 mg/kg, n=5), a ganglionic blocker, the tachycardia was prevented (CVT: 27±3%, HEX: −1±2%), but BP was further reduced (CVT: −11±2%, HEX: −49±5%).

patients with cardiac symptoms [3] [%]	patients with cardiac symptoms, number [3]	patients with respiratory symptoms [3] [%]	patients with respiratory symptoms, number [3]	Compound	peak to baseline CBFv ratio [1]	summed score following stress, visual analysis [2]	BP change caused by Regadenoson [4] [%]	HR change (tachycardia) caused by Regadenoson [4] [%]
14	5	40	14/35	Nc1ncnc2c1ncn2[C@@H]1O[C@H](CO)[C@@H](O)[C@H]1O [ADO, adenosine, reference compound]	3.2±0.5	133.9±1.5		
				C[N+](C)(C)CCCCCC[N+](C)(C)C [hexamethonium, reference compound]			−49±5	−1±2

— patent publication US20080170990A1, “Methods for Myocardial Imaging in Patients Having a History of Pulmonary Disease” (CV THERAPEUTICS, INC., priority 2006, published 2008)
